Results on 35 compounds are retold here after patent US20250042857A1, “SOS1 Inhibitor With Pyrido-Fused Six-Membered Ring Structure” (HAIHE BIOPHARMA CO., LTD., priority 2021, published 2025).

In the assay the target is KRAS-G12C/SOS1 (Homo sapiens (Human), UniProt Q07889). As to the kind of experiment: Detection of inhibitory effects of compounds on KRAS-G12C/SOS1 (KRASG12C/SOS binding kit, HTRF). To be noted: Em665/620, read-out: IC50, inhibitory activity on interaction of KRAS-G12C/SOS1. An excerpt:
Experimental objective: The inhibitory effects of the tested compounds on KRAS-G12C/SOS1 were detected. IC50 was used to characterize the inhibitory ability of the compounds on the KRAS-G12C/SOS1. The lower IC50 value indicated the stronger inhibitory ability. BI-3406 was used as a positive control compound.
Experimental reagents: KRASG12C/SOS binding kit (Cisbio, cat. 63ADK000CB16PEG); DMSO (Sigma, cat. D8418-1L); and 384-well white plate (PerkinElmer, cat. 6007290)
• 1. Preparation of compounds: the test compounds were dissolved in 100% DMSO to obtain 10 mM stock solutions and the stock solutions were stored in a refrigerator in the dark. • 2. Kinase reaction process:
Preparation of compounds: the test compounds had the concentration of 5,000 nM and diluted in a 384-well plate into a 100% DMSO solution at the 200-fold final concentration, and the compounds were diluted 3-fold with 10 concentrations. 50 nL of the compounds at the 200-fold final concentration were transferred to the plate of interest, the 384-well plate, using a dispenser Echo 550. 50 nL of 100% DMSO was added to each negative control well and positive control well.
A Tag1-SOS1 solution at the 4-fold final concentration was prepared using a diluent buffer.
2.5 μL of the Tag1-SOS1 solution at the 4-fold final concentration was added to the 384-well plate.
A Tag2-KRAS-G12C solution at the 4-fold final concentration was prepared using the diluent buffer.
2.5 μL of the Tag2-KRAS-G12C solution at the 4-fold final concentration was respectively added into compound wells and the positive control wells; and 2.5 μL of the diluent buffer was added to the negative control wells.
The 384-well plate was centrifuged at 1,000 rpm for 30 seconds, shaken and mixed uniformly, and incubated at room temperature for 15 minutes.
An Anti-Tag1-TB3+ solution at the 1-fold final concentration and an Anti-Tag2-XL665 solution at the 1-fold final concentration were prepared using a detection buffer, the two solutions were mixed uniformly to obtain a Mix solution, and 5 μL of the Mix solution was added into each well.
The 384-well plate was centrifuged at 1,000 rpm for 30 seconds, shaken and mixed uniformly, and incubated at 4° C. for 120 minutes.
Em665/620 was read using an Envision microplate reader.
Inhibition %=(Max signal−Compound signal)/(Max signal−Min signal)×100 Calculation formula • wherein the Min signal was the mean value of the negative control wells, and the Max signal was the mean value of the positive control wells.
A dose-response curve was fitted using the log value of the concentration as an X axis and the percentage of the inhibitory rate as a Y axis by using the log(inhibitor) vs. response-variable slope of an analytical software GraphPadPrism5, thereby obtaining the IC50 value of each compound on an enzyme activity.

KRAS-G12C/SOS1, sequence (Q07889 whole entry, stated change not applied): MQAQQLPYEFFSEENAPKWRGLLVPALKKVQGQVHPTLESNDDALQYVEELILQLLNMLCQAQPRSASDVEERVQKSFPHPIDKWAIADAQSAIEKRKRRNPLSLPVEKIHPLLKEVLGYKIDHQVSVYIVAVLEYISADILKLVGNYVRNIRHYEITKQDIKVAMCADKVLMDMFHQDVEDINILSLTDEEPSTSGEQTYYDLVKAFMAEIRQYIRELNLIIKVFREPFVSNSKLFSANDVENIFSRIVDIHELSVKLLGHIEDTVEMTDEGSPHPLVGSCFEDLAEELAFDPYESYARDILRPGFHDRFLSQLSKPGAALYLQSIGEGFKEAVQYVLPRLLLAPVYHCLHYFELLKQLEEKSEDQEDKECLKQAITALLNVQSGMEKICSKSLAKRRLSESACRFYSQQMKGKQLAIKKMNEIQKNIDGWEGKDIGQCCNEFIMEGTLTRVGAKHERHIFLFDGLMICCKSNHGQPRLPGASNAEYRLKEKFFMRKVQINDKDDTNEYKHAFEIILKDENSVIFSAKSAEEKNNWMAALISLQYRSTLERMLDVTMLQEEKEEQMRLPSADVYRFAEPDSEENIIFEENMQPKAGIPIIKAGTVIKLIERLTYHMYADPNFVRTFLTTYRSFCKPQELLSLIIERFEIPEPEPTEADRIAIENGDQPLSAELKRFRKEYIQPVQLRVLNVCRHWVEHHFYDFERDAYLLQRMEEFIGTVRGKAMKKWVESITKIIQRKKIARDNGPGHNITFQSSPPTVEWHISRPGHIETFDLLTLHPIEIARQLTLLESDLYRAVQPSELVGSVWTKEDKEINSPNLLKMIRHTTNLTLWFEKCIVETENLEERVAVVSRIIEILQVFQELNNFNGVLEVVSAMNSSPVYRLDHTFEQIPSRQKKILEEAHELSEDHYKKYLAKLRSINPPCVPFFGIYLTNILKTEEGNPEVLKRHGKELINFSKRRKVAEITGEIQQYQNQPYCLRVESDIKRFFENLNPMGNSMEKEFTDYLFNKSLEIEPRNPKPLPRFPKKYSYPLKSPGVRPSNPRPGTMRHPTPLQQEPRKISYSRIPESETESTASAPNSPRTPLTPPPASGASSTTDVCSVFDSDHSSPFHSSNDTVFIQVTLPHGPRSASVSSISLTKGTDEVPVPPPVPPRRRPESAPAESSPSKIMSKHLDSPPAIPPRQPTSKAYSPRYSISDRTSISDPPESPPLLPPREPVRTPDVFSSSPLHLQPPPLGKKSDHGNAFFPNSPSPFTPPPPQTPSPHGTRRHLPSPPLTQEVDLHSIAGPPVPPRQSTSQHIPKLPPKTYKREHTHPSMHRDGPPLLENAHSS

Take `Cc1c([C@@H](C)Nc2ccnc3cnc(C4(O)CCC(O)CC4)cc23)cccc1C(F)(F)F` (single isomer, unassigned) [Compound B-84-P1]: the IC50 lay within 0.1 to 0.5 µM.
The value for `Cc1c([C@@H](C)Nc2ccnc3cnc(C4(O)CCC(O)CC4)cc23)cccc1C(F)(F)F` (single isomer, unassigned) [Compound B-84-P2] was 0.1 to 0.5 µM; that for `Cc1c(C(F)F)cccc1[C@@H](C)Nc1ccnc2cnc(C3(O)CCC(O)CC3)cc12` (single isomer, unassigned) [Compound B-86-P1] was 0.1 to 0.5 µM; that for `Cc1c(C(F)F)cccc1[C@@H](C)Nc1ccnc2cnc(C3(O)CCC(O)CC3)cc12` (single isomer, unassigned) [Compound B-86-P2] was 0.1 to 0.5 µM.
In the case of `Cc1cc(N[C@H](C)c2cccc(C(F)F)c2F)c2cc(C3(O)CCC(O)CC3)ncc2n1` (single isomer, unassigned) [Compound B-88-P1], the IC50 is ≤ 0.1 µM.
Under `C[C@@H](Nc1ccnc2cnc(C3(O)CCC(N(C)C)CC3)cc12)c1cccc(C(F)F)c1F` (single isomer, unassigned) [Compound B-94-P1] stands ≤ 0.1 µM; under `C[C@@H](Nc1ccnc2cnc(C3(O)CCC(N4CCNCC4)CC3)cc12)c1cccc(C(F)F)c1F` (single isomer, unassigned) [Compound B-97-P1], ≤ 0.1 µM.
The value for `COc1cc2nccc(N[C@H](C)c3cccc(C(F)F)c3F)c2cc1OC` [Compound A-1] was ≤ 0.1 µM.
Under `COc1cc2nc(C)cc(N[C@H](C)c3cccc(C(F)F)c3F)c2cc1OC` [Compound A-2] stands ≤ 0.1 µM; under `COc1cc2nccc(N[C@H](C)c3cccc(C(F)F)c3F)c2cc1O[C@H]1CCOC1` [Compound A-3], ≤ 0.1 µM; under `COc1cc2nccc(N[C@H](C)c3cccc(C#N)c3C)c2cc1O[C@H]1CCOC1` [Compound A-4], 0.1 to 0.5 µM.
For the compound `COc1cc2nccc(N[C@H](C)c3cccc(C(F)F)c3F)c2cc1O[C@H]1CCNC1` [Compound A-5], the IC50 was ≤ 0.1 µM.
The value for `COc1cc2nccc(N[C@H](C)c3cccc(C(F)F)c3F)c2cc1O[C@H]1CCN(C(C)=O)C1` [Compound A-6] was ≤ 0.1 µM; that for `COc1cc2nccc(N[C@H](C)c3cccc(C(F)F)c3F)c2cc1O[C@@H]1CCN(C(C)=O)C1` [Compound A-7] was 0.1 to 0.5 µM.
On to `COc1cc2c(N[C@H](C)c3cccc(C(F)F)c3F)ccnc2cc1OC1CCN(C(C)=O)CC1` [Compound A-16], for which the IC50 was ≤ 0.1 µM.
The value for `COc1cc2nccc(N[C@H](C)c3cccc(C(F)F)c3F)c2cc1OC1CCNCC1` [Compound A-17] was ≤ 0.1 µM; that for `COc1cc2nccc(N[C@H](C)c3cccc(C(F)F)c3F)c2cc1OC1CCN(C(C)=O)CC1` [Compound A-18] was ≤ 0.1 µM.
Under `COc1cc2nccc(N[C@H](C)c3cccc(C(F)F)c3F)c2cc1C1=CCN(C(C)=O)CC1` [Compound A-39] stands ≤ 0.1 µM; under `COc1cc2nccc(N[C@H](C)c3cccc(C(F)F)c3F)c2cc1C1CCN(C(C)=O)CC1` [Compound A-40], ≤ 0.1 µM; under `COc1cc2nccc(N[C@H](C)c3cccc(C(F)F)c3F)c2cc1C1CCN(S(C)(=O)=O)CC1` [Compound A-41], ≤ 0.1 µM.
For `COc1cc2nccc(N[C@H](C)c3cccc(C(F)F)c3F)c2cc1C1=CCS(=O)(=O)CC1` [Compound A-45], the IC50 is ≤ 0.1 µM.
Regarding `COc1cc2nccc(N[C@H](C)c3cccc(C(F)F)c3F)c2cc1C1CCS(=O)(=O)CC1` [Compound A-46], the IC50 is ≤ 0.1 µM.
The value for `COc1cc2nccc(N[C@H](C)c3cccc(C(F)F)c3F)c2cc1C1(O)CCN(C(C)=O)CC1` [Compound A-58] was ≤ 0.1 µM; that for `COc1cc2nccc(N[C@H](C)c3cccc(C(F)F)c3F)c2cc1C1(OC)CCN(C(C)=O)CC1` [Compound A-59] was ≤ 0.1 µM.
Under `C[C@@H](Nc1ccnc2cnc(N3CCN(CCO)CC3)cc12)c1cccc(C(F)F)c1F` [Compound B-43] stands ≤ 0.1 µM.
The value for `CNC(=O)C1CCN(c2cc3c(N[C@H](C)c4cccc(C(F)F)c4F)ccnc3cn2)C(=O)C1` (some centres unmarked) [Compound B-55] was ≤ 0.1 µM.
As for `C[C@@H](Nc1ccnc2cnc(N3CC(O)CC3=O)cc12)c1cccc(C(F)F)c1F` (some centres unmarked) [Compound B-57], the IC50 was in the range of 0.1 to 0.5 µM.
The value for `C[C@@H](Nc1ccnc2cnc(N3CCC(O)C3=O)cc12)c1cccc(C(F)F)c1F` (some centres unmarked) [Compound B-58] was ≤ 0.1 µM.
Under `C[C@@H](Nc1ccnc2cnc(N3CCCC3=O)cc12)c1cccc(C(F)F)c1F` [Compound B-59] stands ≤ 0.1 µM.
Under `C[C@@H](Nc1ccnc2cnc(N3CCC(N(C)C)CC3)cc12)c1cccc(C(F)F)c1F` [Compound B-61] stands ≤ 0.1 µM; under `CC(=O)C1CCN(c2cc3c(N[C@H](C)c4cccc(C(F)F)c4F)ccnc3c(C)n2)CC1` [Compound B-66], ≤ 0.1 µM.
Turning to `C[C@@H](Nc1ccnc2cnc(N3C[C@@H](O)C[C@H]3CO)cc12)c1cccc(C(F)F)c1F` [Compound B-77], the IC50 was ≤ 0.1 µM.
Under `COC(=O)C1CCC(O)(c2cc3c(N[C@H](C)c4cccc(C(F)F)c4F)ccnc3cn2)CC1` (some centres unmarked) [Compound B-99] stands ≤ 0.1 µM; under `C[C@@H](Nc1ccnc2cnc(C(C)(C)O)cc12)c1cccc(C(F)F)c1F` [Compound B-105], ≤ 0.1 µM; under `C[C@@H](Nc1ccnc2cnc(C(C)(O)C3CC3)cc12)c1cccc(C(F)F)c1F` (some centres unmarked) [Compound B-106], ≤ 0.1 µM.
